From ChEMBL document CHEMBL1221220, “Transport and signaling via the amino acid binding site of the yeast Gap1 amino acid transceptor” (Nat Chem Biol, 2009)
Where a chain is given by its changes, count along the chain named. Calls of active or inactive are those of the source. The calls are words filed in the database; no cut-off is given here.

Tests used:
[1] = system: General amino-acid permease GAP1 (Saccharomyces cerevisiae), P19145 [S392C]; assay: Inhibition of yeast Gap1 S392C mutant-mediated amino acid uptake at 10 mM
Sequence of General amino-acid permease GAP1 (Saccharomyces cerevisiae), P19145 [S392C] (P19145 whole entry S392C): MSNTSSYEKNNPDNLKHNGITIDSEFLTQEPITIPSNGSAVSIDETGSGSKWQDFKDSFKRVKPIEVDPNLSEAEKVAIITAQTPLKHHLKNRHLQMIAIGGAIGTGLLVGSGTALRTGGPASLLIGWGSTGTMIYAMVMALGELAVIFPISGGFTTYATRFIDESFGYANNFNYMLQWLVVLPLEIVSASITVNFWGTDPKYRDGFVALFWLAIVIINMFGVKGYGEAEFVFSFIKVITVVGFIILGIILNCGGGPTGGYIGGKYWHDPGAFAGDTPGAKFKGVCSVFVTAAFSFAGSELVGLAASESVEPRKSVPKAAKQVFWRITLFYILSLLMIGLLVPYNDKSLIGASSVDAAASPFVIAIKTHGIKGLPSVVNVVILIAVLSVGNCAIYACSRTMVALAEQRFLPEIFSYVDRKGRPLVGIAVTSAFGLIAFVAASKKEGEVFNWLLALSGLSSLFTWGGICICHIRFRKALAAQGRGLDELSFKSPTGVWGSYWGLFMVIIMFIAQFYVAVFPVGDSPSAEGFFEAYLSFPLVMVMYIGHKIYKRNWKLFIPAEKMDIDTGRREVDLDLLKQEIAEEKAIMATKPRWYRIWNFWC

[2] = system: General amino-acid permease GAP1 (Saccharomyces cerevisiae), P19145 [I394C]; assay: Inhibition of yeast Gap1 I394C mutant-mediated amino acid uptake at 10 mM
Sequence of General amino-acid permease GAP1 (Saccharomyces cerevisiae), P19145 [I394C] (P19145 whole entry I394C): as the sequence (P19145 whole entry S392C) above, with C392S, I394C counted along it

[3] = system: T1, General amino-acid permease GAP1 (Saccharomyces cerevisiae), P19145 [I384C]; assay: Induction of yeast Gap1 I384C mutant-mediated amino acid uptake at 2 mM in presence of 10 mM MTSEA treated before compound addition
T1 sequence (whole entry): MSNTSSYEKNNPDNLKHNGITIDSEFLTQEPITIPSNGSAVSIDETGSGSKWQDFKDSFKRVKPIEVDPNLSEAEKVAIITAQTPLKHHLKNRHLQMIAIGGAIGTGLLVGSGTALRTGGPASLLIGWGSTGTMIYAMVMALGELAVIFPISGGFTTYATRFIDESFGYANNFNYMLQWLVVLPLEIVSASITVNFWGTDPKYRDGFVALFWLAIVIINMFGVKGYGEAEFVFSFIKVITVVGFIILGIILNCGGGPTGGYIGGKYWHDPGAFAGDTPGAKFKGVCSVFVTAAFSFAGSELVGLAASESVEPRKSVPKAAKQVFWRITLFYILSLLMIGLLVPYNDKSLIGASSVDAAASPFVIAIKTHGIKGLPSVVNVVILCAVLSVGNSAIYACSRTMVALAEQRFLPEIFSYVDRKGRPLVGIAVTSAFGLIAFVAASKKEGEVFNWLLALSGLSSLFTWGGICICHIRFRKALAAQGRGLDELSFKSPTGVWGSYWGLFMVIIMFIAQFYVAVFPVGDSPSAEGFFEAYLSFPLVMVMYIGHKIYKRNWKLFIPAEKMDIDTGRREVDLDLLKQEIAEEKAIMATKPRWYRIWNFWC

[4] = system: T2, General amino-acid permease GAP1 (Saccharomyces cerevisiae), P19145 [L387C]; assay: Activation of yeast Gap1 L387C mutant-mediated amino acid uptake at 10 mM
T2 sequence (whole entry): T1 sequence (whole entry) with C384I, L387C

[5] = system: T3, General amino-acid permease GAP1 (Saccharomyces cerevisiae), P19145 [C397C]; assay: Induction of yeast Gap1 C397C mutant-mediated […] activation at 2 mM in presence of 10 mM MTSEA treated before compound addition
T3 sequence (whole entry): T1 sequence (whole entry) with C384I

[6] = system: T4, General amino-acid permease GAP1 (Saccharomyces cerevisiae), P19145 [N391C]; assay: Induction of yeast Gap1 N391C mutant-mediated amino acid uptake at 2 mM in presence of 10 mM MTSEA treated before compound addition
T4 sequence (whole entry): T1 sequence (whole entry) with C384I, N391C

Structure (SMILES): NC(=O)NCCC[C@H](N)C(=O)O
- inhibition [1]: Active
- inhibition [2]: Active
- Activity [3]: Active
- Activity [4]: inactive
- inhibition [5]: Active
- Activity [6]: Active
